The IC50 is the concentration at which inhibition is half-maximal. The low end stands for higher potency, the high end for lower potency.

Consider two compounds from ChEMBL document CHEMBL2321748, “Structure-Based Approach for the Discovery of Pyrrolo[3,2-d]pyrimidine-Based EGFR T790M/L858R Mutant Inhibitors” (ACS Med Chem Lett, 2013).

Experiment [1] concerns Epidermal growth factor receptor (Homo sapiens), P00533 [L858R,T790M]. Description: Time dependent inhibition of human EGFR T790M/L858R mutant expressed in Sf9 cells using [gamma32P]-ATP up to 1 hr by scintillation counting.
The target in experiment [2] is Epidermal growth factor receptor (Homo sapiens, UniProt P00533). Put plainly: Inhibition of human wild type EGFR expressed in Sf9 cells using [gamma32P]-ATP after 10 mins by scintillation counting.

Activity calls are given as the source filed them. The calls are words filed in the database; no cut-off is given here.

Chain of Epidermal growth factor receptor (P00533 whole entry): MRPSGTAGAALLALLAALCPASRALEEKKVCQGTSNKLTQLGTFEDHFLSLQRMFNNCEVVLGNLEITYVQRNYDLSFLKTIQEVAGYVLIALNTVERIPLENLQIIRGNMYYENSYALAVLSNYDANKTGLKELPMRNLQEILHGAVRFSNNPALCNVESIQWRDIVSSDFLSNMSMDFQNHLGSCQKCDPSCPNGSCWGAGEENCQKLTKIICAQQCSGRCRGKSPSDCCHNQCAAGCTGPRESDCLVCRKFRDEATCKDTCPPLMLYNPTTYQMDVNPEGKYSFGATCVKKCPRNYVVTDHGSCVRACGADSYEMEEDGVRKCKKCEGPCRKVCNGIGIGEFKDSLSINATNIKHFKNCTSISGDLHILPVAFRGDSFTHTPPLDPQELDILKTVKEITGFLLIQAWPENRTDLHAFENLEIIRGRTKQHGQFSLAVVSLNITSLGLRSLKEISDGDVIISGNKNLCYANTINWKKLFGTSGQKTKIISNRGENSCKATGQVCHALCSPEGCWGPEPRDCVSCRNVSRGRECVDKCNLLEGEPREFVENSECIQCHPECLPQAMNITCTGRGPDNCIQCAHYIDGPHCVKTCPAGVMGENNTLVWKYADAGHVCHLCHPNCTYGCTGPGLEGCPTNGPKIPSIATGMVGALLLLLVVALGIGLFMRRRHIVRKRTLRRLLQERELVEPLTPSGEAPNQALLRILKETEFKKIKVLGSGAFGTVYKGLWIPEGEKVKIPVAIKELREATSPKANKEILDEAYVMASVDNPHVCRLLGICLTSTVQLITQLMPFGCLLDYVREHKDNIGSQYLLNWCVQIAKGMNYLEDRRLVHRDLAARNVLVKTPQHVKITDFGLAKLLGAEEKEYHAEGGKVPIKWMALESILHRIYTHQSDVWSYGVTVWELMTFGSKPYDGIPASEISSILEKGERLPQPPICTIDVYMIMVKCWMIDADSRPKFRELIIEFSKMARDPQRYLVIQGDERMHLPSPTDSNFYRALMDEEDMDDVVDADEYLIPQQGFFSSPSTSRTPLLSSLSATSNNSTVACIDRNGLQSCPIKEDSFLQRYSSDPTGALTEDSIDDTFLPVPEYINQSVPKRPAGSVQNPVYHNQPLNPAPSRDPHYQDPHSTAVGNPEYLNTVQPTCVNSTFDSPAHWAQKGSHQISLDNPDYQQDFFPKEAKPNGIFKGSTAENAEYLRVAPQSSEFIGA
Chain of Epidermal growth factor receptor (Homo sapiens), P00533 [L858R,T790M] (P00533 whole entry T790M/L858R, looked up): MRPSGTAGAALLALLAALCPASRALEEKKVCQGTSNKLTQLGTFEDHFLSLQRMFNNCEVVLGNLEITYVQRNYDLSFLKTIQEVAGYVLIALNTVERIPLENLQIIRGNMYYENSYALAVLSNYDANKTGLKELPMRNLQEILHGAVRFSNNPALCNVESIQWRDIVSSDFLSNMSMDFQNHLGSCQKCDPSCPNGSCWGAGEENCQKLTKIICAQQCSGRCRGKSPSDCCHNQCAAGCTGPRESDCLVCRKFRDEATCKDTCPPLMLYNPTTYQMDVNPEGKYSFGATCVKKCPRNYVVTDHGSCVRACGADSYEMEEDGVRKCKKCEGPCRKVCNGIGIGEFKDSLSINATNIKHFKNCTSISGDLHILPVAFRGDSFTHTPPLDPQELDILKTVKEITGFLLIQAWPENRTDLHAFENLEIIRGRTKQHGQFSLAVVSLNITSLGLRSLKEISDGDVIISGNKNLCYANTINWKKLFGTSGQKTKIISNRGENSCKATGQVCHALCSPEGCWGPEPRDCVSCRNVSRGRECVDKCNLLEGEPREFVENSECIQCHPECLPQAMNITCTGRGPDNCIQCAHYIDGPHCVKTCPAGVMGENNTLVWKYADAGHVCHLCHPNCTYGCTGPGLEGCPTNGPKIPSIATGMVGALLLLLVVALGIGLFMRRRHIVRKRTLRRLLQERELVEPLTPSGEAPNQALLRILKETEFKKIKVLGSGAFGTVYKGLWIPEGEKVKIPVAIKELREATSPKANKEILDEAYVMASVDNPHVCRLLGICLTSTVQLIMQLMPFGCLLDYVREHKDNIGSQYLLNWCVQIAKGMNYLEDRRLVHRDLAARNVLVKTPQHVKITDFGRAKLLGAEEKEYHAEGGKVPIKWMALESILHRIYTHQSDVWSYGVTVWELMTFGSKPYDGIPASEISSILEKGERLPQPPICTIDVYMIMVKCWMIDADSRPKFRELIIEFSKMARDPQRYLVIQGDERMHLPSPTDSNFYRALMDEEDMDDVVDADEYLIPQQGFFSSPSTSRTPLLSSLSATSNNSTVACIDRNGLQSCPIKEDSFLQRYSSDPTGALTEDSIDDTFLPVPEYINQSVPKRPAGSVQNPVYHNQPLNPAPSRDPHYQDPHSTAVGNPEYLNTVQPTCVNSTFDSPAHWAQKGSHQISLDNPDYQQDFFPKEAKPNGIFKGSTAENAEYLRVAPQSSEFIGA

Regarding `CN(C)C/C=C/C(=O)NCCn1ccc2ncnc(Nc3ccc(Oc4cccc(C(F)(F)F)c4)c(Cl)c3)c21`, in experiment [1], the inhibition entry was “inactive”. The compound also showed an IC50 in experiment [2] of 4.6 nM. `O=C(Nc1cccc(Oc2ccc(Nc3ncnc4ccn(CCOCCO)c34)cc2Cl)c1)NC1CCCCC1` came in with an IC50 in experiment [2] of 6.9 nM.
